Laboratory results: US9848599B2, “Co-crystals of 3-iodopropynyl butylcarbamate” (priority 2012, dated 2017)

Assay: Thermal stability compared with IPBC
Type: physicochemical

| Compound | thermal stability compared with IPBC |
| --- | --- |
| Co-crystal containing 3-iodopropynyl butylcarbamate and 4-[2-(4-pyridinyl)ethyl]pyridine in a 2:1 Molar Ratio [Co-Crystal 1] | higher thermal stability |
| CCCCNC(=O)OCC#CI.CCCCNC(=O)OCC#CI.c1cc(-c2ccncc2)ccn1 [Co-Crystal 2, Co-Crystal Containing 3-iodopropynyl butylcarbamate and 4,4′-bipyridine in a 2:1 Molar Ratio] | higher thermal stability |
| Co-Crystal Containing 3-iodopropynyl butylcarbamate and N,N′-bis(4-pyridylcarbonyl)-1,6-hexanediamine in a 2:1 Molar Ratio [Co-Crystal 5] | higher thermal stability |
